Assay results from patent publication US11572590B2, “Methods for evaluating tumor cell spheroids using 3D microfluidic cell culture device” (Dana-Farber Cancer Institute, Inc., priority 2017, dated 2023).

Experiments:
B16F10 MDOTS = assay: Bead-based cytokine profiling of B16F10 MDOTS; assay type: cell-based, murine; settings: Cmpd1 (1 μM) ± αPD-1
Experimental: Fresh tumor specimens (murine and human patients) were received in media (DMEM) on ice and minced in a 10 cm dish (on ice) using sterile forceps and scalpel. Minced tumor was resuspended in DMEM ([…], […] sodium pyruvate, 1:100 penicillin-streptomycin) (Corning CellGro, Manassas, Va.) +10% FBS (Gemini Bio-Products, West Sacramento, Calif.), 100 U/mL collagenase type IV (Life Technologies, Carlsbad, Calif.), and 15 mM HEPES (Life Technologies, Carlsbad, Calif.), except for CT26 tumors that were prepared in RPMI. Samples were pelleted and resuspended in 10-20 mL media. Red blood cells were removed from visibly bloody samples using RBC Lysis Buffer (Boston Bio-Products, Ashland, Mass.). […]
Two multiplex assays were performed utilizing a bead-based immunoassay approach, the Bio-Plex Pro™ Human Cytokine 40-plex Assay (Cat #171AK99MR2) and Bio-Plex Pro™ Mouse Cytokine Panel 1, 23-plex (Cat #M60009RDPD) on a Bio-plex 200 system (Cat #171000201). […] Fold changes relative to the MDOT/PDOT control were calculated and plotted as log 2FC. Lower and upper limits of quantitation (LLOQ/ULOQ) were imputed from standard curves for cytokines above or below detection. […]

CT26 and EMT6 cells = assay: Re-implantation of CT26 and EMT6 cells into mice with exceptional responses (immunologic memory); assay type: in vivo, mouse; settings: previous αPD-L1 + Compound 1
Experimental: Combination studies were performed by vivoPharm (Hummelstown, Pa., USA). All procedures used in the performance of these studies were carried out in accordance with vivoPharm's Standard Operating Procedures, with particular reference to US_SOPvP_EF0314 “General Procedures for Efficacy Studies.” CT26 colon carcinoma cells (1×10^6 cells/mouse in 100 μL, passage 2-3) were re-suspended in serum-free DMEM and implanted in the upper right flank of 11-12 week old female Balb/c mice (Charles River Laboratories). Mice were randomized into four groups of 10 using a matched pair distribution method based on tumor size for CT26. Treatment was initiated 12 days post-inoculation with mean tumor volume at start of dosing of 125.85 mm^3. Vehicle or Compound 1 (40 mg/kg) was administered by oral gavage daily for 26 days and isotype control or a reverse chimera anti-PD-L1 cloned from literature reports (e.g., Deng, R. et al. MAbs (2016), the content of which is incorporated herein by reference in entirety) and placed into a mouse IgG1 framework (10 mg/kg) was administered every 5 days for a total of six doses. Investigators were not blinded to treatment groups. […] Mice were sacrificed on Day 13 and lung metastases were quantified (small ≤1 mm, medium >1 mm and ≤3 mm, large >3 mm). No large lung metastases were detected.

MC38 allograft = assay: MC38 allograft, Compound 1 and anti-PD-L1 combination in vivo; parameters: species or system mouse; settings: Cmpd1 + αPD-L1; did not reach significance vs single-agent PD-L1

N#Cc1cc(-c2ncnc(Nc3ccc(N4CCN(C5COC5)CC4)cc3)n2)ccc1OC1CCOCC1 [Compound 1, 5-(4-((4-(4-(oxetan-3-yl)piperazin-1-yl)phenyl)amino)-1,3,5-triazin-2-yl)-2-((tetrahydro-2H-pyran-4-yl)oxy)benzonitrile]
immune suppressive chemokines (e.g., CCL2, CCL5) in B16F10 MDOTS (B16F10 MDOTS): downregulation
induction of G-CSF and related innate immune response cytokines in B16F10 MDOTS (B16F10 MDOTS): without concomitant induction
growth of reimplanted CT26 in mice with exceptional responses to combination therapy (CT26 and EMT6 cells): no growth
in vivo survival, MC38 model, combination treatment (MC38 allograft): enhanced
